The record followed here is ChEMBL document CHEMBL1201862, “PubChem BioAssay data set” (2004).

The source made the active and inactive calls. Bounds are passed on as bounds.

For assay [1], the target named is Peroxisome proliferator-activated receptor gamma/Nuclear receptor coactivator 2 (Homo sapiens, UniProt P37231). In kind it is functional.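 Note: agonist potency for raising coactivator recruitment to the receptor.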
The target in assay [2] is Peroxisome proliferator-activated receptor gamma/Nuclear receptor coactivator 3 (Homo sapiens, UniProt P37231). In kind it is functional.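 Note: agonist potency for raising coactivator recruitment to the receptor.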
Assay [3] concerns the target Peroxisome proliferator-activated receptor gamma/Nuclear receptor coactivator 1 (Homo sapiens, UniProt P37231). The assay is classed as functional.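 Note: agonist potency as compounds enhance coactivator SRC-1 recruitment to PPARgamma.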
For assay [4], the target named is T1, Estrogen receptor (Homo sapiens, UniProt P03372).
T1 sequence (P03372 whole entry): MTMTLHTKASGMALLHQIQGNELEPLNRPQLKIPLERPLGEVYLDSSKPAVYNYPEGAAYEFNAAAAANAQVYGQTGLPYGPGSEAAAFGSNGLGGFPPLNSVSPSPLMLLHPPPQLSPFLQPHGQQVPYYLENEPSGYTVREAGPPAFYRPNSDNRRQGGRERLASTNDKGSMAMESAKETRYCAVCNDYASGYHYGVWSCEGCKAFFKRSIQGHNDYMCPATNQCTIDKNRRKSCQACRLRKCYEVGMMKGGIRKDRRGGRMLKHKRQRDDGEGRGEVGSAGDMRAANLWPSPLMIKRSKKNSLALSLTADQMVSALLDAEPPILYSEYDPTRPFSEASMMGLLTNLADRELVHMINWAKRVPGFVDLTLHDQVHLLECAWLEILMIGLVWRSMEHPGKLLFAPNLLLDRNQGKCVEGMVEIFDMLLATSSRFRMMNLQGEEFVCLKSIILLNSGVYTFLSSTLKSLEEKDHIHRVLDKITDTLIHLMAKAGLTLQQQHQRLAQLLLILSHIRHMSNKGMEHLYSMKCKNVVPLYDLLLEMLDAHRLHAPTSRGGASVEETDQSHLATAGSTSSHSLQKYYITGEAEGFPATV
The experiment in a line: blockers of SRC-3 recruitment to ERα – biochemical, ELISA, streptavidin-HRP readout, orthogonal assay, confirmation (AID 1079). For orientation: In an ELISA, binding on a coated surface is turned into a signal by an enzyme label.

The nature of assay [5]: antiviral protection against BTV-induced cell death – arbovirus, BSR cells, confirmation (AID 1250).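 Note: protection from viral cytopathic effect measured as cell viability by ATP luminescence.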 The assay is classed as functional.
Assay [6] concerns the target T2, RNA-binding protein pos-1 (Caenorhabditis elegans, UniProt G5EF15).
T2 sequence (G5EF15 whole entry): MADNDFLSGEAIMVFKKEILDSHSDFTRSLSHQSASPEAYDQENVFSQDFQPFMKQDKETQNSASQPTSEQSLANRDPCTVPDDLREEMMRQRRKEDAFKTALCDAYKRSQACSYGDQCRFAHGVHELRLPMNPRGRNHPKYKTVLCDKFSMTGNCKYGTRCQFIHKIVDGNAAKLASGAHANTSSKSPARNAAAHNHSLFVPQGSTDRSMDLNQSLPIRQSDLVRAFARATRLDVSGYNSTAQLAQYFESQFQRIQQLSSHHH
The experiment in a line: disruptors of C. elegans POS-1 RNA interaction – biochemical, fluorescence polarization, dose response (AID 1964).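 Note: purified POS-1 fused to maltose binding protein made in E. coli; potency of compounds blocking POS-1 binding to fluorescent RNA.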

Assay [7] is described as follows: NIH3T3 cell viability loss – ATP luminescence, mouse fibroblasts, counter-screen, dose response (AID 2010).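 Note: cells exposed to compound for about 90 hours before reading.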 In kind it is functional, cell-based. In general terms: The purpose of a counterscreen is to sort out artefacts and off-target activity.
The target in assay [8] is T3, Zinc finger protein mex-5 (Caenorhabditis elegans, UniProt Q9XUB2).
T3 sequence (Q9XUB2 whole entry): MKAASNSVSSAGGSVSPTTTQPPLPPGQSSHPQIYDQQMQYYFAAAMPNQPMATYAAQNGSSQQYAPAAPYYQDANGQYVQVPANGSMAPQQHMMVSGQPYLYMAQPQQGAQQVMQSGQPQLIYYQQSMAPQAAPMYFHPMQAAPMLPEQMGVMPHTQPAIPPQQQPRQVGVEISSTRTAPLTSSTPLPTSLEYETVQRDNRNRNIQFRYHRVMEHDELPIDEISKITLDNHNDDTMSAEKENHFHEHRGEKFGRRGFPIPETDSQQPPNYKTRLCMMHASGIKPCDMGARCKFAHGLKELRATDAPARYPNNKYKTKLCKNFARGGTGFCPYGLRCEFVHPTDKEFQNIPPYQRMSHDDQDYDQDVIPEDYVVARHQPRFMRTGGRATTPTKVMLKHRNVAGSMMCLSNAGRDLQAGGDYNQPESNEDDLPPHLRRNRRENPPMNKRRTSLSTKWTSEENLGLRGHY
Nature of the assay: potency of MEX-5 RNA-binding blockers – biochemical, C. elegans, fluorescence polarization, dose response (AID 1960). (Fluorescence polarisation rises when a labelled molecule tumbles more slowly, as on binding a larger partner.)

Assay [9] in a line: Trypanosoma cruzi growth suppression in host cells – NIH3T3 host cells, beta-gal luminescence, confirmation (AID 2044).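 Note: intracellular parasites grown in NIH/3T3 mouse fibroblasts as host cells; luminescent beta-galactosidase reporter signal from transgenic T. cruzi replicating inside host cells; inhibitors lower the luminescence signal.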 In kind it is functional, cell-based.
For assay [10], the target named is Mothers against decapentaplegic homolog 3 (Homo sapiens, UniProt P84022). Nature of the assay: inhibitors of SMAD-driven TGF-beta signaling – dose response (AID 715). In kind it is functional.
For assay [11], the target named is Mucolipin-3 (Homo sapiens, UniProt Q8TDD5). The experiment in a line: Dose response cell-based high-throughput screening assay for agonists of the transient receptor potential channel ML3 (TRPML3). [Related pubchem assays: 1526, 1424, 1448 ]. In kind it is functional.
Assay [12] addresses Ion channel NompC (Danio rerio, UniProt Q7T1G6). The experiment in a line: Fluorescence counterscreen assay for TRPML3 agonists: dose response cell-based high-throughput screening assay to identify agonists of the transient receptor potential channel N1 (TRPN1). [Related pubchem assays: 1526, 1424, 1448 ]. The assay is classed as functional.
Assay [13] concerns the target T4, Aminopeptidase N (Plasmodium falciparum FcB1/Columbia, UniProt O96935).
T4 sequence (O96935 whole entry): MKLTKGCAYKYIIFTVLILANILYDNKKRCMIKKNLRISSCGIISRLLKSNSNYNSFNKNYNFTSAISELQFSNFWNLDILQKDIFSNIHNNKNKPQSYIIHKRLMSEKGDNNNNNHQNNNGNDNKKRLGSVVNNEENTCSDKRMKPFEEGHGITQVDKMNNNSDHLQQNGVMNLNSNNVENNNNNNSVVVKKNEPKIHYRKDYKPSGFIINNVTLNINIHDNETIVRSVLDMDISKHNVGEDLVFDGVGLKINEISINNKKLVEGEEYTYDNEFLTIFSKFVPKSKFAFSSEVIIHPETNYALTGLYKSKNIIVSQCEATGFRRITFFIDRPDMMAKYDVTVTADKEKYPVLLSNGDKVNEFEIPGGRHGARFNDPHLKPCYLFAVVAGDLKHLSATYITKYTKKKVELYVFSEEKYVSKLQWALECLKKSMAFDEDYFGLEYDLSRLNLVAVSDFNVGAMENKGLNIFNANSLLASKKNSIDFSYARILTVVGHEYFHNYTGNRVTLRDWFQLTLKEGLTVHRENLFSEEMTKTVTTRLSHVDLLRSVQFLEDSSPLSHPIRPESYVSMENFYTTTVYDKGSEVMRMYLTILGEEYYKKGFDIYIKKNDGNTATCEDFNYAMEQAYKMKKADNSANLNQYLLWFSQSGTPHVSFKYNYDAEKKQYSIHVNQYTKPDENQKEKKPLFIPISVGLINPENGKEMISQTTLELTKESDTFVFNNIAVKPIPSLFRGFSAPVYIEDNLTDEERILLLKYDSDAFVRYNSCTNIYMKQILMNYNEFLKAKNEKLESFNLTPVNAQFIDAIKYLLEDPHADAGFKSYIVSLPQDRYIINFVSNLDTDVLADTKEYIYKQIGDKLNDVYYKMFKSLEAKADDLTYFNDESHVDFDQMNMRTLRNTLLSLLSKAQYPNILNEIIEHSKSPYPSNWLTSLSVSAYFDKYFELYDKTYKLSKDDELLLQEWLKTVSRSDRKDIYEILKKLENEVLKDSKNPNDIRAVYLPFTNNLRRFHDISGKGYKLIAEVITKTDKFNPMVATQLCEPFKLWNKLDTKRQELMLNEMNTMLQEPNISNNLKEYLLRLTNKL
Nature of the assay: malaria alanyl aminopeptidase activity blockers – biochemical, fluorogenic H-Leu-NHMec substrate, 1536-well (AID 1445). On the set-up: species or system Plasmodium falciparum 3D7, 3D7.

Assay [14] can be described thus: CCR5-tropic HIV-1 fusion blockers – cell-based, CCR5-tropic Env, dose response (AID 2279). In kind it is functional.
Assay [15] concerns HeLa. The experiment in a line: Cytotoxicity counterscreen assay for transcriptional activators of heat shock protein 70 (Hsp70). [Related pubchem assays: 1203, 1252 ]. The assay is classed as functional. The conditions noted are these: Homo sapiens.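 Note: cells exposed to compound for 16 hours before readout.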
For assay [16], the target named is T5, Rac GTPase-activating protein 1 (Homo sapiens, UniProt Q9H0H5).
T5 sequence (Q9H0H5 whole entry): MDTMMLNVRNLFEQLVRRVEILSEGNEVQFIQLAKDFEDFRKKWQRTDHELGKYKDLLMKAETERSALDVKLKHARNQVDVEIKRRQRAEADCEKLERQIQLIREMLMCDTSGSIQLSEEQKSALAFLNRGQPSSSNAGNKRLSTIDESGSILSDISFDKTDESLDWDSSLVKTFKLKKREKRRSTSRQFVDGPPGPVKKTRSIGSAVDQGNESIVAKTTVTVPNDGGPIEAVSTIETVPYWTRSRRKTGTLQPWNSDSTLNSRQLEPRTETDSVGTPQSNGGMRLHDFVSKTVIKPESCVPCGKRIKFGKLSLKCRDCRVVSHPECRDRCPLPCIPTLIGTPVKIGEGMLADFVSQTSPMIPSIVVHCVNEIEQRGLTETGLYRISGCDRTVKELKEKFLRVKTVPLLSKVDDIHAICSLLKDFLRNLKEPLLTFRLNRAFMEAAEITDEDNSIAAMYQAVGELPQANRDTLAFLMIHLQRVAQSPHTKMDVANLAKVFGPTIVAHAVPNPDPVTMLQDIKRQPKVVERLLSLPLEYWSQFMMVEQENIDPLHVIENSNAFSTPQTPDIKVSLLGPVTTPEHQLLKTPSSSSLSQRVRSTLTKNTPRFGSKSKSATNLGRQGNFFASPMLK
Nature of the assay: blockers of MgcRacGAP-driven Rac1 GTP hydrolysis – biochemical, ADP Hunter fluorescence, primary and confirmatory, confirmation (AID 624330). In kind it is functional.

Assay [17] concerns the target T6, Probable nicotinate-nucleotide adenylyltransferase (Staphylococcus aureus (strain N315), UniProt P65502). The assay is classed as functional, Staphylococcus aureus subsp. aureus N315. The conditions noted are these: read-out: IC50_Mean.
Assay [18] addresses T6, Probable nicotinate-nucleotide adenylyltransferase. The assay is classed as functional, Staphylococcus aureus subsp. aureus N315.
The nature of assay [19]: mitochondrial function rescue without frataxin homolog – Friedreich's ataxia, plus single-dose screen, dose response (AID 1465).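 Note: yeast depleted of Yfh1p frataxin homolog grown on glycerol needing respiration; WST-1 tetrazolium dye reduction as measure of cellular dehydrogenase metabolic activity.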 The assay is classed as functional.
Assay [20] can be described thus: Luminescence Cell-Based Dose Retest to Confirm Inhibitors of Cancer Stem Cells. [Related pubchem assays (depositor defined):AID2717, AID2721]. The assay is classed as functional. The conditions noted are these: Homo sapiens.
The target in assay [21] is T7, Streptokinase A (Streptococcus pyogenes serotype M1, UniProt P10520).
T7 sequence (P10520 whole entry): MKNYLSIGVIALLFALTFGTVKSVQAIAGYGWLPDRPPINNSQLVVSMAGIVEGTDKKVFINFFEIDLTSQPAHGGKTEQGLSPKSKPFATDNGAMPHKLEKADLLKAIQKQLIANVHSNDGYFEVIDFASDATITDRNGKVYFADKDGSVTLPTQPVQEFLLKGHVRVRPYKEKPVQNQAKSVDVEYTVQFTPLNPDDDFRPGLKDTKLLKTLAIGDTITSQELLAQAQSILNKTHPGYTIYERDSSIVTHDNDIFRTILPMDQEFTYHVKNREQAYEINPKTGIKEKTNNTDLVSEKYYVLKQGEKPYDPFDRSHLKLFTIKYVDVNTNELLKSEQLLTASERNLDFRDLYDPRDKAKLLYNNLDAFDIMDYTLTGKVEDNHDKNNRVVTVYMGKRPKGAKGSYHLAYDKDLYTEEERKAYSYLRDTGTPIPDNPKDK
The experiment in a line: viability-normalized secreted streptokinase activity reduction – plasminogen activation absorbance, OD405, dose response (AID 1914).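 Note: secreted streptokinase activity via plasminogen activation per viability signal from cell pellet.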 In kind it is functional, Streptococcus pyogenes M1 GAS.

Assay [22] deals with Streptococcus. The experiment in a line: GAS UMAA2166 growth inhibition – luminescence, BacTiterGlo, counter-screen for streptokinase expression inhibitor project, dose response (AID 1915).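 Note: potency for reduction of bacterial viability or growth.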 The assay is classed as functional, organism-based.
The test system of assay [23] is Streptococcus sp. 'group A'. The experiment in a line: Streptococcus pyogenes SK(-)GAS viability under kanamycin – luminescence, BacTiterGlo, confirmation, counter-screen for streptokinase expression inhibitor project, dose response (AID 1900). The assay is classed as functional, organism-based.
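Throughout, for AC50: cells exposed to compound for roughly 70 hours or longer before luminescence read.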
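Throughout, for IC50 Mean: confirmatory dose-response retesting of NadD inhibitor hits first found in an ultra-high-throughput screen.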

T6 sequence (P65502 whole entry): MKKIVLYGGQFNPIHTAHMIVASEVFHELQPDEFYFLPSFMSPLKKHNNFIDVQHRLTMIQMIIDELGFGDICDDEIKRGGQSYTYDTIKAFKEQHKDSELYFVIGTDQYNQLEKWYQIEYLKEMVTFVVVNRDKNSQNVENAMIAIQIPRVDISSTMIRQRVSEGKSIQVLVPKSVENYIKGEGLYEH
Sequence of Peroxisome proliferator-activated receptor gamma/Nuclear receptor coactivator 1 (P37231 whole entry): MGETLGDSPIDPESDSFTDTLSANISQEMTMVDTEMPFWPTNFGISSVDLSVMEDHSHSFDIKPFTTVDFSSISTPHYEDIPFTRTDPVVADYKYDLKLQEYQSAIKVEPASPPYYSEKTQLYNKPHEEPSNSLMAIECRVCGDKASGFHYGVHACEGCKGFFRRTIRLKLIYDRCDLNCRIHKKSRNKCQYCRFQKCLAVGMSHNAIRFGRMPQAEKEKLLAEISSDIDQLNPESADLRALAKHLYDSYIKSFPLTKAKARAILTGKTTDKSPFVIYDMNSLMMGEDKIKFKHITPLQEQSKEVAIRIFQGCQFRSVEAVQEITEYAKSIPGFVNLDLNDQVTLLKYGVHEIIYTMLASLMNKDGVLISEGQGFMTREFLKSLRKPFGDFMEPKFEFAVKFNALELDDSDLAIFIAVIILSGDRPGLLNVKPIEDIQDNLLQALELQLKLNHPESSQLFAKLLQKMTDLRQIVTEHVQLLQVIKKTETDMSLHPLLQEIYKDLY
Sequence of Peroxisome proliferator-activated receptor gamma/Nuclear receptor coactivator 1 (Q15788 whole entry, further chain): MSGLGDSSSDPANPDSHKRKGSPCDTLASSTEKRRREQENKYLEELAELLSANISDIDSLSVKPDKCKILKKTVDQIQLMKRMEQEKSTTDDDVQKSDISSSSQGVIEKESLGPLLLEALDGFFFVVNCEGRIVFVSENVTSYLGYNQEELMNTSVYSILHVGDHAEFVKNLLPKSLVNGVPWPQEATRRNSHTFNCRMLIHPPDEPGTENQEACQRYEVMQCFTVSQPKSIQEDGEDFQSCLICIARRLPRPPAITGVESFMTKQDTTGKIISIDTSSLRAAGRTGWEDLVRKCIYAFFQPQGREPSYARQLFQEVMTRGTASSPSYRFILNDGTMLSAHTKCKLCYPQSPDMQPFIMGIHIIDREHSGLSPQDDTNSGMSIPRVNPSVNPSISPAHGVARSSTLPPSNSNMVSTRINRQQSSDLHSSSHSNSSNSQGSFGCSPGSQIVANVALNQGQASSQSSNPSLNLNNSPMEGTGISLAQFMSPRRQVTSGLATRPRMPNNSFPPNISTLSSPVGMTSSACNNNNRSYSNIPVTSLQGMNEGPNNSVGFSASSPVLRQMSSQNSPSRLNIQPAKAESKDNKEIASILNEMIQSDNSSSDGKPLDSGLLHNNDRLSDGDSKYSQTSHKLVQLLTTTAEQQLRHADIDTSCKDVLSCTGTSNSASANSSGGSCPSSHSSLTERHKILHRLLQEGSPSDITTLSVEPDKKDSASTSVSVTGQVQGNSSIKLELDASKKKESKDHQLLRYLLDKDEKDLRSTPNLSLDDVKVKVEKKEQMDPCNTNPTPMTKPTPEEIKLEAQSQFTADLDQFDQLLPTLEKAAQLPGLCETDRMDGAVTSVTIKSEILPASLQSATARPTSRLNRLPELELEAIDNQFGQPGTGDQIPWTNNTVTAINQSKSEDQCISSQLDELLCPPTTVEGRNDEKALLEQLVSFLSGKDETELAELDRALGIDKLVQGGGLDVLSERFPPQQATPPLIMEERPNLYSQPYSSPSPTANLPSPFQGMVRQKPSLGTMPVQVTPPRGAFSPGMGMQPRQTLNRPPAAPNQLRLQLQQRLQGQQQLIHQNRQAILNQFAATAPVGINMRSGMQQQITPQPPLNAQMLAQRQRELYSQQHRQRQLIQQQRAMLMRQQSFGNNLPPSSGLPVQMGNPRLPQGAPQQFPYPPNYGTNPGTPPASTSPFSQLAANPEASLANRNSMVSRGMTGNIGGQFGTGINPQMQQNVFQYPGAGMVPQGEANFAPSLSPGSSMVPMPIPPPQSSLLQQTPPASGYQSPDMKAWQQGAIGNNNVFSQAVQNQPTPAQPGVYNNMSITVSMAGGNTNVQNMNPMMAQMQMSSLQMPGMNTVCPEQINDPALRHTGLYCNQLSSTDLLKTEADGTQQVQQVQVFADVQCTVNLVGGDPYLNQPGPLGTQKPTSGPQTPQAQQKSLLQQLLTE
Sequence of Peroxisome proliferator-activated receptor gamma/Nuclear receptor coactivator 3 (P37231 whole entry): as the sequence (P37231 whole entry) above
Sequence of Peroxisome proliferator-activated receptor gamma/Nuclear receptor coactivator 3 (Q9Y6Q9 whole entry, further chain): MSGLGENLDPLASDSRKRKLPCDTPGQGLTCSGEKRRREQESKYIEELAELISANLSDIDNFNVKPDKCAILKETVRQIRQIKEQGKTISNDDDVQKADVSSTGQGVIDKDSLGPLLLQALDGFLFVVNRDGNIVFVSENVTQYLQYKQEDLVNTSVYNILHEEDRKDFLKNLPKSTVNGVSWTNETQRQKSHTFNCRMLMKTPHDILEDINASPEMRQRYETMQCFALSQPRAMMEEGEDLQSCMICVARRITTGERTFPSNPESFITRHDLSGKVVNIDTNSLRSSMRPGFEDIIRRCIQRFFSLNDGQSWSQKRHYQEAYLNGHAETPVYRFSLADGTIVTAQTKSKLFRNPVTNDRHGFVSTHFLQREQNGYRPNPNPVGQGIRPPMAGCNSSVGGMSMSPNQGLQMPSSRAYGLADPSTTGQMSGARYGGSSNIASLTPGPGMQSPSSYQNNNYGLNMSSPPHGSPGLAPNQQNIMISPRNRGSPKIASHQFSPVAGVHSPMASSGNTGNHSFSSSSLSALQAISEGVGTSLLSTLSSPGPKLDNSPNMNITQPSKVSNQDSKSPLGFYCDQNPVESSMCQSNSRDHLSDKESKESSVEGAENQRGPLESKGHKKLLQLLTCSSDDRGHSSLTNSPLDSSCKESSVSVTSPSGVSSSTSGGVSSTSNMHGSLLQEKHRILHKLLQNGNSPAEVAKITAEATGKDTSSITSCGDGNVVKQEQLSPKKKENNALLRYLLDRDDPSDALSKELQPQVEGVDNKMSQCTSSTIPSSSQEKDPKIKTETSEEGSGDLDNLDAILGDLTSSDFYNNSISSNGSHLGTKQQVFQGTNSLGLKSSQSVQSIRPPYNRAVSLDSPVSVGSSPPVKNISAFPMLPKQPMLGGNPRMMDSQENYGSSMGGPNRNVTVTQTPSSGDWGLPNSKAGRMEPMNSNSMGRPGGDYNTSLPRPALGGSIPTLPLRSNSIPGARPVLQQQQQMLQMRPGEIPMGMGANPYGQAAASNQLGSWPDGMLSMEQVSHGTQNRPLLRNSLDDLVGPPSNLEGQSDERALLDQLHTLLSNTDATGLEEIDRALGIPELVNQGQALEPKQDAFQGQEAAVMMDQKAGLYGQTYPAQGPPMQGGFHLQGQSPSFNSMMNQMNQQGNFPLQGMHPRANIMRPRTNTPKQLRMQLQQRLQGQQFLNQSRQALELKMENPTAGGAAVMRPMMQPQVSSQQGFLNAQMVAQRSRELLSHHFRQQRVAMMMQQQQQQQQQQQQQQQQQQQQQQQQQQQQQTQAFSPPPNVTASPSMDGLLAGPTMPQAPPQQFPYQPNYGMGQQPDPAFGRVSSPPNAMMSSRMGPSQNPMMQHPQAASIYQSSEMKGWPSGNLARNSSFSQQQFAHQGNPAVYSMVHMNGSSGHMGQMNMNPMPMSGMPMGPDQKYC
Sequence of Mothers against decapentaplegic homolog 3 (P84022 whole entry): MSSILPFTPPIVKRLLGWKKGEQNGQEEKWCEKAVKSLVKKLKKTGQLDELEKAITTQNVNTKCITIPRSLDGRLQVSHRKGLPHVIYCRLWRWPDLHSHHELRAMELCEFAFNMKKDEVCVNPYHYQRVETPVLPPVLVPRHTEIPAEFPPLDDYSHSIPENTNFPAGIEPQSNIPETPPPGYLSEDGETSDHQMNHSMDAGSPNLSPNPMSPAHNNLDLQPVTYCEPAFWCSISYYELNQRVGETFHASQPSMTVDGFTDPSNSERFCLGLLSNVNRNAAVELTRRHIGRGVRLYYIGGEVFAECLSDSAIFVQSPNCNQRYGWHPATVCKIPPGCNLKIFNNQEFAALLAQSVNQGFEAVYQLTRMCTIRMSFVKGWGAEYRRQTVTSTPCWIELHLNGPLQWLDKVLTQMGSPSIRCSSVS
Sequence of Mucolipin-3 (Q8TDD5 whole entry): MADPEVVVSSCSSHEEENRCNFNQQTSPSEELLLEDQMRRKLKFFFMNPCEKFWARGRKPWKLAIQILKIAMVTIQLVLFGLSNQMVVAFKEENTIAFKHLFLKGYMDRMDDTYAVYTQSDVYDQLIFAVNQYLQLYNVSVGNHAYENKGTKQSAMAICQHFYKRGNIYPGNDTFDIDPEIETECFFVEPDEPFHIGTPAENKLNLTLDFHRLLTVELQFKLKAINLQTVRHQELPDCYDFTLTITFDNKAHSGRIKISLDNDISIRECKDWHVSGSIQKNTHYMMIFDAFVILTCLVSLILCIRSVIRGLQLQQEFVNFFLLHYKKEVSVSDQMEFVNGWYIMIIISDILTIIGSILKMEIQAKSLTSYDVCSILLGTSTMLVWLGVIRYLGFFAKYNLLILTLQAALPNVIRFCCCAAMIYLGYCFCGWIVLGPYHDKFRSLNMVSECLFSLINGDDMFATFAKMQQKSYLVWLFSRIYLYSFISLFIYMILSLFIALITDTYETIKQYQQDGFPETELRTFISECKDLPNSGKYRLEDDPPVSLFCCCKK

Take `CCOC(=O)C1CCN(C(=O)CSc2ccccc2Cl)CC1`: the EC50 in assay [1], in assay [2] and in assay [3] was > 79.4 µM (not active) in each case.
For the compound `COc1ccc(N2CCN(C(=O)CCCn3c(=S)[nH]c4ccccc4c3=O)CC2)cc1`, the IC50 in assay [4] is > 50 µM (not active).
For the compound `Cc1cc(C)c2c(O)nc(SCC(=O)c3ccc(C)c(C)c3)nc2n1`, the IC50 in [5] was 27.6 µM (active).
For the compound `CCCN1CCCc2cc(CN)ccc21`, the EC50 in [6] was 18.5 µM (active); in [7] it was > 30 µM (not active); in [8], 13 µM (active); in assay [9] it was 0.127 µM (active). In assay [10], the IC50 is 24.6 µM (active).
With `Cc1onc(-c2ccccc2Cl)c1C(=O)Nc1cccc(-c2nc3ncccn3c2C)c1`, the EC50 in assay [11] and in assay [12] was > 29.9 µM (not active) in each case.
With `COc1cc(/C=C2\SC(=O)N(CC(=O)Nc3cccc(C)c3)C2=O)cc([N+](=O)[O-])c1O`, the IC50 in assay [13] was 40.8 µM (active); in assay [14] it was > 50 µM (active).
As for `COc1ccccc1C1Nc2cccc3cccc(c23)N1`, in assay [15], the CC50 is listed as > 99 µM (not active). Moreover, the IC50 in [16] was 35.1 µM (active).
As to `Oc1nc(NN=C(S)NCc2ccccc2)nc2c1C1(CCCCC1)Cc1ccccc1-2`, the IC50 in [17] is 35.8 µM (active); in assay [18], 11.8 µM (active). Besides, the EC50 in [19] is > 100 µM (active); in assay [21], 4.58 µM (active); in assay [22], 6.03 µM (active); in [23], 3.33 µM (active). Also, in assay [20], the AC50 is 3 µM (active).

As usually defined, the EC50 is the concentration at which the effect is half-maximal. As usually defined, the CC50 is the concentration at which the toxic effect on the cells reaches its halfway point. High values mean better tolerance by the cells, low ones harm at low concentration. As usually defined, the AC50 is the concentration at which the activity in the assay is half-maximal.
